Test results published in patent US20200197335A1, “CANCER THERAPEUTIC” (priority 2017, published 2020).
Where two headings read alike, the source gives them in different places.

Experiments:
Squamous Cell Carcinoma = details: propranolol 160 mg daily with curcumin and celebrex, five weeks; reduced to 40 mg daily
[1] = cited from earlier work
[2] = tested on: Stage IV Adenocarcinoma of Lung; experiment: Treatment of Patient X with Stage IV adenocarcinoma of lung, followed by repeat PET CT; format: in vivo, human
Description: Commenced RAS modulation: • Aspirin: 300mg once daily • Start Date: 20 Jun. 2015
2015 • + Cilazapril: 2.5 mg once daily • Start Date: 26 Nov. 2015
2015 • + Doxycycline: 100mg once daily • Start Date: 20 Feb. 2016

[3] = piperine included in the curcumin formulation; cited from earlier work
[4] = tested on: several tumoral cell lines; details: cited from earlier work

CC(C)NCC(O)COc1cccc2ccccc12 (racemic) [Propranolol, (RS)-1-(1-methylethylamino)-3-(1-naphthyloxy)propan-2-ol]
Adverse effects leading to dose reduction (Squamous Cell Carcinoma): feeling ‘weak in the legs’ and had two episodes of falls
Uncommon side effects ([1]; Uncommon (0.1-0.9%)): Gastrointestinal disturbance, such as nausea, vomiting, diarrhoea

CC(=O)Oc1ccccc1C(=O)O [Aspirin, acetylsalicylic acid]
Repeat PET CT ([2]; 28 Jul. 2015, Aspirin 300mg once daily from 20 Jun. 2015): static appearance with low levels of activity remaining at both the primary and left lung metastasis sites
Common side effects ([1]; in vivo): Increased bleeding tendencies, dyspepsia
Rare side effects ([1]; in vivo): Thrombocytopenia, agranulocytosis, aplastic anaemia, hypersensitivity reactions, angio-oedema, allergic oedema, anaphylactic reactions including shock
Uncommon side effects ([1]; in vivo): Urticaria, rhinitis, dyspnoea

Cc1ccc(-c2cc(C(F)(F)F)nn2-c2ccc(S(N)(=O)=O)cc2)cc1 [Celecoxib, 4-[5-(4-methylphenyl)-3-(trifluoromethyl)pyrazol-1-yl]benzenesulfonamide]
Diarrhoea, frequency ([1]; listed as common): 4-10%
Headache, frequency ([1]; listed as common): 10-15%
Hypertension, frequency ([1]; listed as common): 2-12%
Nausea, frequency ([1]; listed as common): 3-7%
Gastrointestinal haemorrhage, frequency ([1]; listed as serious): less than 0.1%
Gastrointestinal perforation, frequency ([1]; listed as serious): less than 0.1%
Thrombosis, frequency ([1]; listed as serious): 1.2%

CCOC(=O)[C@H](CCc1ccccc1)N[C@H]1CCCN2CCC[C@@H](C(=O)O)N2C1=O [Cilazapril, (4S,7S)-7-[[(2S)-1-Ethoxy-1-oxo-4-phenylbutan-2-yl]amino]-6-oxo-1,2,3,4,7,8,9,10-octahydropyridazino[1,2-a]diazepine-4-carboxylic acid]
Common side effects ([1]; in vivo): Fatigue, hypotension, dyspepsia, nausea and other gastrointestinal disturbances, headache, rash and coughing
Rare side effects ([1]; in vivo): Skin rashes including erythema multiforme and toxic epidermal necrolysis may occur. Photosenstivity, alopecia and other hypersensitivity reactions
Uncommon side effects ([1]; in vivo): Tachycardia, palpitations and chest pain

CCCCc1nc(Cl)c(CO)n1Cc1ccc(-c2ccccc2-c2nn[nH]n2)cc1 [Losartan]
Common side effects ([1]; in vivo): Cold or flu symptoms such as stuffy nose, sneezing, sore throat, fever, muscle cramps, pain in the legs or back, stomach pain, diarrhoea, headache, dizziness, tired feeling, sleep problems (insomnia)

CN(C)C(=N)N=C(N)N [Metformin, N,N-dimethylimidodicarbonimidic diamide]
Mild gastrointestinal symptoms (diarrhoea, nausea, vomiting, loss of appetite), frequency ([1]; especially during the initial treatment period): > 1/10
Metallic taste, frequency ([1]; worded 'Common' within the Very Rare paragraph): 3%

C#Cc1cccc(Nc2ncnc3cc(OCCOC)c(OCCOC)cc23)c1 [Tarceva]
Repeat PET CT ([2]; 1 Apr. 2015, on Tarceva): new right para-aortic node with high avidity
Repeat PET CTs ([2]; 12 Jul. 2011 to 5 Nov. 2013, Tarceva 150mg once daily from 2 Jun. 2011): remission of the cancer

O=C(C=CC=Cc1ccc2c(c1)OCO2)N1CCCCC1 [piperine, 1-[5-(1,3-Benzodioxol-5-yl)-1-oxo-2,4-pentadienyl]piperidine]
Effect on bioavailability of Curcumin [3]: increases the bioavailability of Curcumin

[Pt(dmba)(aza-N1)(dmso)] complex 1
IC50 relative to cisplatin [4]: lower IC50 than cisplatin
